The test concerns the target GLP-1R (Homo sapiens, UniProt P43220). Nature of the test: GLP-1R Activation - cAMP Assay. To be noted: cAMP increase in CHO cells stably expressing GLP-1R; each compound run on one of the two cAMP assays (Assay 1 or Assay 2, not specified). It counts as cell-based. An outline of the steps:
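cAMP rise read by HTRF after 30 min agonist exposure (10-point titration, 37 °C) in HBSS/20 mM Hepes/0.1% BSA, following 1 h pre-incubation. Cells: stable GLP-1R CHO line, 1,000/well, seeded overnight. Sigmoidal fit of response vs log concentration gives EC50.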
(Cyclic AMP is a second messenger, typically raised through Gs and lowered through Gi signalling.)

Results on 26 compounds are retold here after US12570642B2, “GLP-IR modulating compounds” (Gilead Sciences, Inc., priority 2021, dated 2026).

Chain of GLP-1R (P43220 24-463): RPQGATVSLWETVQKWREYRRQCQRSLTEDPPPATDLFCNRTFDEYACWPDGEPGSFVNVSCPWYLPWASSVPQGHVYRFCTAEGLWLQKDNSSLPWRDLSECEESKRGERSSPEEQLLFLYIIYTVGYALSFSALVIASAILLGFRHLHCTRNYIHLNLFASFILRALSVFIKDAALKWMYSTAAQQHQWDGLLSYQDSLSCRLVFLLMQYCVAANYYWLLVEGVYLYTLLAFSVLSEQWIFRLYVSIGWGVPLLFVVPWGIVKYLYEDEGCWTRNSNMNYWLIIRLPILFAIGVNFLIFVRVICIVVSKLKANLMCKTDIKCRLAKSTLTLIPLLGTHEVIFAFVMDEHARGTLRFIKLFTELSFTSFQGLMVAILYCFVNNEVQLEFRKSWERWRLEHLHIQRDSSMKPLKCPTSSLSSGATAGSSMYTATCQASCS

In the case of `COC[C@H]1COC[C@H]1n1c(Cc2cc(F)c(-c3cccc(OCc4ccc(Cl)cc4)n3)cc2F)nc2ccc(C(=O)O)cc21` [Example 544, 2-(4-(6-((4-chlorobenzyl)oxy)pyridin-2-yl)-2,5-difluorobenzyl)-1-((3S,4S)-4-(methoxymethyl)tetrahydrofuran-3-yl)-1H-benzo[d]imidazole-6-carboxylic acid], the EC50 (usually the concentration needed to bring the measured effect to its halfway point) amounted to 0.048 nM. In the case of `COCCn1c(Cc2cc(F)c(-c3cccc(OCc4cc(F)c(F)cc4F)n3)cc2F)nc2ccc(C(=O)O)cc21` [Example 27, 2-(2,5-difluoro-4-(6-((2,4,5-trifluorobenzyl)oxy)pyridin-2-yl)benzyl)-1-(2-methoxyethyl)-1H-benzo[d]imidazole-6-carboxylic Acid] it was 13.1 nM; in that of `CC1(C)COC[C@H]1n1c(Cc2cc(F)c(-c3nccc(OCc4ccc(Cl)cc4F)n3)cc2F)nc2ccc(C(=O)O)cc21` [Example 405, (S)-2-(4-(4-((4-chloro-2-fluorobenzyl)oxy)pyrimidin-2-yl)-2,5-difluorobenzyl)-1-(4,4-dimethyltetrahydrofuran-3-yl)-1H-benzo[d]imidazole-6-carboxylic acid], 0.337 nM. In the case of `COCCn1c(Cc2cc(F)c(-c3cccc(OCc4ccc(-c5cccnc5C)cc4F)n3)cc2F)nc2ccc(C(=O)O)cc21` [Example 104, 2-(2,5-difluoro-4-(6-((2-fluoro-4-(2-methylpyridin-3-yl)benzyl)oxy)pyridin-2-yl)benzyl)-1-(2-methoxyethyl)-1H-benzo[d]imidazole-6-carboxylic Acid] it was 41.3 nM; in that of `COCCn1c(Cc2cc(F)c(-c3cccc(OCc4ccc(-c5cn(C)nn5)nc4)n3)cc2F)nc2ccc(C(=O)O)cc21` [Example 107, 2-(2,5-difluoro-4-(6-((6-(1-methyl-1H-1,2,3-triazol-4-yl)pyridin-3-yl)methoxy)pyridin-2-yl)benzyl)-1-(2-methoxyethyl)-1H-benzo[d]imidazole-6-carboxylic Acid], 1.4 nM. Next, `COCCn1c(Cc2cc(F)c(-c3cc(N)nc(OCc4ccc(C#N)cc4F)n3)cc2F)nc2ccc(C(=O)O)cc21` [Example 45, 2-(4-(6-amino-2-((4-cyano-2-fluorobenzyl)oxy)pyrimidin-4-yl)-2,5-difluorobenzyl)-1-(2-methoxyethyl)-1H-benzo[d]imidazole-6-carboxylic Acid]: 16.7 nM. The compound `CC1(C)COCC1n1c(Cc2cc(F)c(-c3cccc(OCc4ccc(C#N)cc4F)n3)cc2F)nc2ccc(C(=O)O)c(F)c21` (centres unmarked) [Example 166, 2-(4-(6-((4-cyano-2-fluorobenzyl)oxy)pyridin-2-yl)-2,5-difluorobenzyl)-1-(4,4-dimethyltetrahydrofuran-3-yl)-7-fluoro-1H-benzo[d]imidazole-6-carboxylic Acid] registered a 50% effective concentration (EC50) of 0.222 nM. Next, `CC1(C)COC[C@H]1n1c(Cc2c(F)cc(-c3ccc(F)c(OCc4ccc(C#N)cc4)n3)c(F)c2F)nc2c(F)cc(C(=O)O)cc21` [Example 316, (S)-2-(4-(6-((4-cyanobenzyl)oxy)-5-fluoropyridin-2-yl)-2,3,6-trifluorobenzyl)-1-(4,4-dimethyltetrahydrofuran-3-yl)-4-fluoro-1H-benzo[d]imidazole-6-carboxylic acid]: 0.14 nM; `CC1(C)COC[C@H]1n1c(Cc2ccc(-c3ccnc(OCc4ccc(C#N)cc4F)n3)cc2F)nc2c(F)cc(C(=O)O)cc21` [Example 298, (S)-2-(4-(2-((4-cyano-2-fluorobenzyl)oxy)pyrimidin-4-yl)-2-fluorobenzyl)-1-(4,4-dimethyltetrahydrofuran-3-yl)-4-fluoro-1H-benzo[d]imidazole-6-carboxylic acid]: 0.663 nM. In the case of `Cn1ncc2ccc(COc3cccc(-c4cc(F)c(Cc5nc6ccc(C(=O)O)cc6n5C[C@@H]5CCO5)cc4F)n3)cc21` [Example 524, (S)-2-(2,5-difluoro-4-(6-((1-methyl-1H-indazol-6-yl)methoxy)pyridin-2-yl)benzyl)-1-(oxetan-2-ylmethyl)-1H-benzo[d]imidazole-6-carboxylic acid] it was 0.605 nM.

Consider `CC1(C)COCC1n1c(Cc2cc(F)c(-c3cccc(OCc4ccc(Cl)nc4)n3)cc2F)nc2ccc(C(=O)O)cc21` (centres unmarked) [Example 92], for which the concentration giving a half-maximal response (EC50) turned out to be 0.13 nM. In turn, `N#Cc1ccc(COc2cccc(-c3cc(F)c(Cc4nc5ccc(C(=O)O)cc5n4[C@@H]4COC[C@@H]4C(F)F)cc3F)n2)c(F)c1` (single isomer, unassigned) [Example 233] gave a concentration giving a half-maximal response (EC50) of 3.11 nM. In the case of `COCCn1c(Cc2c(F)cc(-c3cccc(OCc4ccc(-n5ccnn5)cc4Cl)n3)c(F)c2F)nc2ccc(C(=O)O)cc21` [Example 403, 2-(4-(6-((2-chloro-4-(1H-1,2,3-triazol-1-yl)benzyl)oxy)pyridin-2-yl)-2,3,6-trifluorobenzyl)-1-(2-methoxyethyl)-1H-benzo[d]imidazole-6-carboxylic acid] it was 0.081 nM. As for `Cc1ccc(COc2cccc(-c3cc(F)c(Cc4nc5ccc(C(=O)O)cc5n4C4COCC4(C)C)cc3F)n2)c(Cl)n1` (centres unmarked) [Example 286, 2-(4-(6-((2-chloro-6-methylpyridin-3-yl)methoxy)pyridin-2-yl)-2,5-difluorobenzyl)-1-(4,4-dimethyltetrahydrofuran-3-yl)-1H-benzo[d]imidazole-6-carboxylic acid], the concentration for a half-maximal effect (EC50) amounted to 0.099 nM. Compound `CC1(C)COC[C@H]1n1c(Cc2cc(F)c(-c3ccc(Cl)c(OCc4ccc(Cl)cc4)n3)cc2F)nc2ccc(C(=O)O)cc21` [Example 433, (S)-2-(4-(5-chloro-6-((4-chlorobenzyl)oxy)pyridin-2-yl)-2,5-difluorobenzyl)-1-(4,4-dimethyltetrahydrofuran-3-yl)-1H-benzo[d]imidazole-6-carboxylic acid] gave a half-maximal effective concentration (EC50) of 0.209 nM.

For `CC1(C)COC[C@H]1n1c(Cc2cc(F)c(-c3cccc(OCc4ccc(F)cc4)n3)cc2F)nc2ccc(C(=O)O)cc21` [Example 360, (S)-2-(2,5-difluoro-4-(6-((4-fluorobenzyl)oxy)pyridin-2-yl)benzyl)-1-(4,4-dimethyltetrahydrofuran-3-yl)-1H-benzo[d]imidazole-6-carboxylic acid], the EC50 is 0.079 nM. As to `COCCn1c(Cc2cc(F)c(-c3cccc(OCc4ccc(-c5cncn5C)cc4F)n3)cc2F)nc2ccc(C(=O)O)cc21` [Example 113], the response was half-maximal at 11 nM (EC50). For the compound `CC1(C)COC[C@H]1n1c(Cc2c(F)cc(-c3cccc(OCc4ccc(C#N)cc4)n3)c(F)c2F)nc2ccc(C(=O)O)cc21` [Example 245, (S)-2-(4-(6-((4-cyanobenzyl)oxy)pyridin-2-yl)-2,3,6-trifluorobenzyl)-1-(4,4-dimethyltetrahydrofuran-3-yl)-1H-benzo[d]imidazole-6-carboxylic acid], the concentration giving a half-maximal response (EC50) came out at 0.051 nM.

In turn, `CC1(C)COCC1n1c(Cc2cc(F)c(-c3ccc(F)c(OCc4ccc(C#N)cc4F)n3)cc2Cl)nc2c(F)cc(C(=O)O)cc21` (centres unmarked) [Example 346, 2-(2-chloro-4-(6-((4-cyano-2-fluorobenzyl)oxy)-5-fluoropyridin-2-yl)-5-fluorobenzyl)-1-(4,4-dimethyltetrahydrofuran-3-yl)-4-fluoro-1H-benzo[d]imidazole-6-carboxylic acid] yielded an EC50 of 0.075 nM. In the case of `CC1(C)COCC1n1c(Cc2cc(F)c(-c3cccc(OCc4ccc(C(F)(F)F)cc4F)n3)cc2F)nc2c(F)cc(C(=O)O)cc21` (centres unmarked) [Example 175, 2-(2,5-difluoro-4-(6-((2-fluoro-4-(trifluoromethyl)benzyl)oxy)pyridin-2-yl)benzyl)-1-(4,4-dimethyltetrahydrofuran-3-yl)-4-fluoro-1H-benzo[d]imidazole-6-carboxylic Acid] it was 0.106 nM; in that of `CC1(C)COC[C@H]1n1c(Cc2ccc(-c3cccc(OCc4ccc(Cl)cc4)n3)cc2F)nc2ccc(C(=O)O)cc21` [Example 371, (S)-2-(4-(6-((4-chlorobenzyl)oxy)pyridin-2-yl)-2-fluorobenzyl)-1-(4,4-dimethyltetrahydrofuran-3-yl)-1H-benzo[d]imidazole-6-carboxylic acid], 0.127 nM; in that of `CC1(C)COC[C@H]1n1c(Cc2ccc(-c3cccc(OCc4ccc(Cl)cc4F)n3)cc2F)nc2ccc(C(=O)O)cc21` [Example 331, (S)-2-(4-(6-((4-chloro-2-fluorobenzyl)oxy)pyridin-2-yl)-2-fluorobenzyl)-1-(4,4-dimethyltetrahydrofuran-3-yl)-1H-benzo[d]imidazole-6-carboxylic acid], 0.218 nM. Next, `COCCn1c(Cc2c(F)cc(-c3ccc(F)c(OCc4ccc(C#N)cc4F)n3)c(F)c2F)nc2c(F)cc(C(=O)O)cc21` [Example 232, 2-(4-(6-((4-cyano-2-fluorobenzyl)oxy)-5-fluoropyridin-2-yl)-2,3,6-trifluorobenzyl)-4-fluoro-1-(2-methoxyethyl)-1H-benzo[d]imidazole-6-carboxylic acid]: 0.118 nM; `N#Cc1ccc(COc2cccc(-c3cc(F)c(Cc4nc5ccc(C(=O)O)cc5n4[C@@H]4COC[C@@H]4OC4CC4)cc3F)n2)c(F)c1` (racemic) [Example 411, 2-(4-(6-((4-cyano-2-fluorobenzyl)oxy)pyridin-2-yl)-2,5-difluorobenzyl)-1-((3R,4R)-4-cyclopropoxytetrahydrofuran-3-yl)-1H-benzo[d]imidazole-6-carboxylic acid]: 1.33 nM. For `CC1(C)COC[C@H]1n1c(Cc2cc(F)c(-c3cccc(OCc4ccc(Cl)cc4F)n3)cc2F)nc2ccc(C(=O)O)nc21` [Example 437, (S)-2-(4-(6-((4-chloro-2-fluorobenzyl)oxy)pyridin-2-yl)-2,5-difluorobenzyl)-3-(4,4-dimethyltetrahydrofuran-3-yl)-3H-imidazo[4,5-b]pyridine-5-carboxylic acid], the half-maximal effective concentration (EC50) is 0.644 nM.

`CC1(C)COC[C@H]1n1c(Cc2cc(F)c(-c3cccc(OCc4ccccc4C#N)n3)cc2F)nc2ccc(C(=O)O)cc21` [Example 446, (S)-2-(4-(6-((2-cyanobenzyl)oxy)pyridin-2-yl)-2,5-difluorobenzyl)-1-(4,4-dimethyltetrahydrofuran-3-yl)-1H-benzo[d]imidazole-6-carboxylic acid] displayed an EC50 of 0.2 nM.
